This passage reports IC50 and Ki results from ChEMBL document CHEMBL1909046, “DrugMatrix in vitro pharmacology data”.

Sequence of C-C chemokine receptor type 2 (P41597 whole entry): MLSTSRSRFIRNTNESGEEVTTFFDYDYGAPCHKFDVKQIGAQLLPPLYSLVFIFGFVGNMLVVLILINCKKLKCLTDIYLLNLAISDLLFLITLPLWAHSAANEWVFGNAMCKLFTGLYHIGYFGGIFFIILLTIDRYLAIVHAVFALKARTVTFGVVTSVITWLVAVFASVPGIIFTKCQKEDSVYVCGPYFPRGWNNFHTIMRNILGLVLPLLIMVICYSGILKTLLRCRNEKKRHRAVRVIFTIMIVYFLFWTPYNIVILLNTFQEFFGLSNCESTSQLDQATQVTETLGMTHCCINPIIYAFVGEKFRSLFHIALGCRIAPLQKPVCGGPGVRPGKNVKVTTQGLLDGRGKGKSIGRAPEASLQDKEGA
Sequence of Nitric oxide synthase 1 (P29476 whole entry): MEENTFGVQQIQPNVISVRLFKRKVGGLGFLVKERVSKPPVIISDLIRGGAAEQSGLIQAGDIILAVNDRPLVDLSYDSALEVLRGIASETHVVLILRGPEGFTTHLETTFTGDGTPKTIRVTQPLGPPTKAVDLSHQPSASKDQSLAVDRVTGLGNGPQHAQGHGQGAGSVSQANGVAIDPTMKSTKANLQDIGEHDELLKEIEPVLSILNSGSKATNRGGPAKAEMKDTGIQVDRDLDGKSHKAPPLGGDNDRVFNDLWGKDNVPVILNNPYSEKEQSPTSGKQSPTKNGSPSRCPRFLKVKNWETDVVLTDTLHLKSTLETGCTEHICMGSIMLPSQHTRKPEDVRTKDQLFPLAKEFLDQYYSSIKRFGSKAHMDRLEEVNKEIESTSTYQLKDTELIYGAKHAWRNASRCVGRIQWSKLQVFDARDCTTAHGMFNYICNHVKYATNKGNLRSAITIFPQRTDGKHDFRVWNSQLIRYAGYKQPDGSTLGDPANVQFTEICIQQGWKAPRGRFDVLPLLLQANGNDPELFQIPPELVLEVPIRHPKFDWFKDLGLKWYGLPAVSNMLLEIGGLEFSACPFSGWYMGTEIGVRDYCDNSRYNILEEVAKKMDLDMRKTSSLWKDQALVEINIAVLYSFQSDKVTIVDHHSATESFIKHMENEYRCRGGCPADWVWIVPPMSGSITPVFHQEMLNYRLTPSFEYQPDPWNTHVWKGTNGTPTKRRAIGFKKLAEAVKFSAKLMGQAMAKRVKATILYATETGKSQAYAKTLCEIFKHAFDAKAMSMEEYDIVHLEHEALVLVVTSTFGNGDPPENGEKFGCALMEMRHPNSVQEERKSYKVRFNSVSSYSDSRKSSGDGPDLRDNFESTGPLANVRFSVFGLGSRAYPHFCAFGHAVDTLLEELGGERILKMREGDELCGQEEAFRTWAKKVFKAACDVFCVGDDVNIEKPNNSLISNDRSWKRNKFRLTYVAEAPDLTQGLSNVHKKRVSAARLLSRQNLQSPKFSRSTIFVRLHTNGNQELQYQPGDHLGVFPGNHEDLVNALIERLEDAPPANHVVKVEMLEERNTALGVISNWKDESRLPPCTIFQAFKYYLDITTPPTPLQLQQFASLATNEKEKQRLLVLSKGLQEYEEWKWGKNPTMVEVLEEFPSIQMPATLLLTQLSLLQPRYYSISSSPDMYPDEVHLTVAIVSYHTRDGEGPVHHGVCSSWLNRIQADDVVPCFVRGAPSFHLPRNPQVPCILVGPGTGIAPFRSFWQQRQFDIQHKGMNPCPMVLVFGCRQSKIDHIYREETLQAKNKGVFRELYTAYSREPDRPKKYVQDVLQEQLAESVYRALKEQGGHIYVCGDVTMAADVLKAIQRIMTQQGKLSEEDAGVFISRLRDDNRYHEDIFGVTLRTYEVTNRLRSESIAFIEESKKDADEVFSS

The target of the first experiment is Platelet-activating factor receptor (Homo sapiens, UniProt P25105). Format: tissue-based. Also: in other assays of this panel Not Active means under 50% inhibition at 10 µM.
Sequence of Platelet-activating factor receptor (P25105 whole entry): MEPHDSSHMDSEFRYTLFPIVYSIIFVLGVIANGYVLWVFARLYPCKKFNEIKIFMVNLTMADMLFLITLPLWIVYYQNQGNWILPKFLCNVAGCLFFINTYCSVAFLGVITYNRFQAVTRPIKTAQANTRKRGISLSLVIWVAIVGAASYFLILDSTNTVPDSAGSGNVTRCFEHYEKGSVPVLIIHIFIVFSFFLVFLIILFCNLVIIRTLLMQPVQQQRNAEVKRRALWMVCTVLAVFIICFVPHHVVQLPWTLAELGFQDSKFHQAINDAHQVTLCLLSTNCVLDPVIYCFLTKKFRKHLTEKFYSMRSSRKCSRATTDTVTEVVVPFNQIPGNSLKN
Settings: not given
With `NC(=O)C[S+]([O-])C(c1ccccc1)c1ccccc1` (configuration not stated) [MODAFINIL], the IC50 result is given as “Not Active”.
For the compound `CCN(CC)CCOCCC1=CCC2CC1C2(C)C` (configuration not stated) [MYRTECAINE], the IC50 entry is recorded as “Not Active”.
Still for that read-out and setting: the same measure for `O=C(O)c1cccnc1Nc1cccc(C(F)(F)F)c1` [NIFLUMIC ACID]: “Not Active”.
The same measure, in the same setting: the same measure for `O=C(N/N=C/c1ccc([N+](=O)[O-])o1)c1cc([N+](=O)[O-])cc([N+](=O)[O-])c1O` [NIFURSOL]: “Not Active”.
On the same count and under the same terms, in the case of `COC(=O)Nc1nc2ccc(C(=O)c3cccs3)cc2[nH]1` [NOCODAZOLE] it was “Not Active”.
Consider `C#CC1(O)CC[C@H]2[C@@H]3CCC4=CC(=O)CC[C@@H]4[C@H]3CC[C@@]21CC` (some centres not stated) [NORGESTREL], for which the IC50 entry is “Not Active”.
Take `COC(=O)Nc1nc2ccc([S+]([O-])c3ccccc3)cc2[nH]1` (configuration not stated) [OXFENDAZOLE]: the IC50 result is “Not Active”.

The next experiment addresses C-C chemokine receptor type 2 (Homo sapiens, UniProt P41597). Format: cell membranes, Membrane. Particulars: cho-k1.
In the case of `NC(=O)C[S+]([O-])C(c1ccccc1)c1ccccc1` (configuration not stated) [MODAFINIL], the IC50 result was “Not Active”.
As for `CCN(CC)CCOCCC1=CCC2CC1C2(C)C` (configuration not stated) [MYRTECAINE], the IC50 entry is reported as “Not Active”.
As for `O=C(O)c1cccnc1Nc1cccc(C(F)(F)F)c1` [NIFLUMIC ACID], the IC50 entry was “Not Active”.
The same measure, in the same setting: in the case of `O=C(N/N=C/c1ccc([N+](=O)[O-])o1)c1cc([N+](=O)[O-])cc([N+](=O)[O-])c1O` [NIFURSOL] it was “Not Active”; in that of `COC(=O)Nc1nc2ccc(C(=O)c3cccs3)cc2[nH]1` [NOCODAZOLE], “Not Active”; in that of `C#CC1(O)CC[C@H]2[C@@H]3CCC4=CC(=O)CC[C@@H]4[C@H]3CC[C@@]21CC` (some centres not stated) [NORGESTREL], “Not Active”.
Same read-out and setting: in the case of `COC(=O)Nc1nc2ccc([S+]([O-])c3ccccc3)cc2[nH]1` (configuration not stated) [OXFENDAZOLE] it was “Not Active”.

System in another experiment: not listed separately
In words: DRUGMATRIX: Tumor Necrosis Factor (TNF), Non-Selective radioligand binding (ligand: [125I] TNF-alpha). The experiment is classed as cell membranes, Membrane. The conditions noted are these: u-937; Not Active = under 50% inhibition at 10 µM.
As to `NC(=O)C[S+]([O-])C(c1ccccc1)c1ccccc1` (configuration not stated) [MODAFINIL], the IC50 entry is “Not Active” and the Ki entry was “Not Active”.
Regarding `CCN(CC)CCOCCC1=CCC2CC1C2(C)C` (configuration not stated) [MYRTECAINE], the IC50 result is given as “Not Active” and the Ki entry was “Not Active”.
On to `O=C(O)c1cccnc1Nc1cccc(C(F)(F)F)c1` [NIFLUMIC ACID], for which the IC50 entry was “Not Active” and the Ki entry was “Not Active”.
With `O=C(N/N=C/c1ccc([N+](=O)[O-])o1)c1cc([N+](=O)[O-])cc([N+](=O)[O-])c1O` [NIFURSOL], the IC50 result was “Not Active” and the Ki result is given as “Not Active”.
`COC(=O)Nc1nc2ccc(C(=O)c3cccs3)cc2[nH]1` [NOCODAZOLE]: the IC50 result is reported as “Not Active” and the Ki result is “Not Active”.
For `C#CC1(O)CC[C@H]2[C@@H]3CCC4=CC(=O)CC[C@@H]4[C@H]3CC[C@@]21CC` (some centres not stated) [NORGESTREL], the IC50 result is listed as “Not Active” and the Ki result is recorded as “Not Active”.
Consider `COC(=O)Nc1nc2ccc([S+]([O-])c3ccccc3)cc2[nH]1` (configuration not stated) [OXFENDAZOLE], for which the IC50 entry is reported as “Not Active” and the Ki entry is “Not Active”.

In a further experiment the target is Beta-1 adrenergic receptor (Homo sapiens, UniProt P08588). In words: DRUGMATRIX: Adrenergic beta1 radioligand binding (ligand: [125I] Cyanopindolol). The experiment is classed as cell membranes, CHO-K1, Membrane. Particulars: cho-k1; Not Active = under 50% inhibition at 10 µM.
Sequence of Beta-1 adrenergic receptor (P08588 whole entry): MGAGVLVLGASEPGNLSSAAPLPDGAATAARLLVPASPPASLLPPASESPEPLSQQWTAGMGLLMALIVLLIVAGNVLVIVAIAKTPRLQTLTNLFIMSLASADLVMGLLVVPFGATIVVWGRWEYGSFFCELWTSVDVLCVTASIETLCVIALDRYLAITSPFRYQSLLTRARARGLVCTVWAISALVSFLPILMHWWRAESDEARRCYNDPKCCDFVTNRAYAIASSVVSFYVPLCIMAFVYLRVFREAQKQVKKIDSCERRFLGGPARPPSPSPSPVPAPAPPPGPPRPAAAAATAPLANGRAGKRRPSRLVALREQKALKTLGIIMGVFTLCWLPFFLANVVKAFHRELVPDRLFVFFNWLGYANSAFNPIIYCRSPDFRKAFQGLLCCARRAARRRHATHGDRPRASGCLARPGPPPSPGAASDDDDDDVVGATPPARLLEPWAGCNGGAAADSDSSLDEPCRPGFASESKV
For `NC(=O)C[S+]([O-])C(c1ccccc1)c1ccccc1` (configuration not stated) [MODAFINIL], the IC50 result was “Not Active”.
The same measure, in the same setting: in the case of `CCN(CC)CCOCCC1=CCC2CC1C2(C)C` (configuration not stated) [MYRTECAINE] it was “Not Active”; in that of `O=C(O)c1cccnc1Nc1cccc(C(F)(F)F)c1` [NIFLUMIC ACID], “Not Active”; in that of `O=C(N/N=C/c1ccc([N+](=O)[O-])o1)c1cc([N+](=O)[O-])cc([N+](=O)[O-])c1O` [NIFURSOL], “Not Active”.
The same measure, in the same setting: the same measure for `COC(=O)Nc1nc2ccc(C(=O)c3cccs3)cc2[nH]1` [NOCODAZOLE]: “Not Active”; for `C#CC1(O)CC[C@H]2[C@@H]3CCC4=CC(=O)CC[C@@H]4[C@H]3CC[C@@]21CC` (some centres not stated) [NORGESTREL]: “Not Active”; for `COC(=O)Nc1nc2ccc([S+]([O-])c3ccccc3)cc2[nH]1` (configuration not stated) [OXFENDAZOLE]: “Not Active”.

For the next experiment, the target named is Delta-type opioid receptor (Homo sapiens, UniProt P41143). Format: cell membranes, Membrane. Particulars: hek293. Also: in other assays of this panel Not Active means under 50% inhibition at 10 µM.
Sequence of Delta-type opioid receptor (P41143 whole entry): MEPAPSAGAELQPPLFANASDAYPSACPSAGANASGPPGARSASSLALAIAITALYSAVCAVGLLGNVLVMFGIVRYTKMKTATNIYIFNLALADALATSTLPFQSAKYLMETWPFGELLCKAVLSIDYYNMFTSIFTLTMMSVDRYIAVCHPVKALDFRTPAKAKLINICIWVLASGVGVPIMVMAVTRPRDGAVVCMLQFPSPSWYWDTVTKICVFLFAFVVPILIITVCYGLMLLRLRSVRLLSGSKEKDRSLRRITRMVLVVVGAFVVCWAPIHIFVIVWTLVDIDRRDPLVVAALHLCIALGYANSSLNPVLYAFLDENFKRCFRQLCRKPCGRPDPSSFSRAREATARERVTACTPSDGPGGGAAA
For the compound `NC(=O)C[S+]([O-])C(c1ccccc1)c1ccccc1` (configuration not stated) [MODAFINIL], the IC50 result is “Not Active”.
In the case of `CCN(CC)CCOCCC1=CCC2CC1C2(C)C` (configuration not stated) [MYRTECAINE], the IC50 entry is recorded as “Not Active”.
Take `O=C(O)c1cccnc1Nc1cccc(C(F)(F)F)c1` [NIFLUMIC ACID]: the IC50 entry is given as “Not Active”.
The same measure, in the same setting: the same measure for `O=C(N/N=C/c1ccc([N+](=O)[O-])o1)c1cc([N+](=O)[O-])cc([N+](=O)[O-])c1O` [NIFURSOL]: “Not Active”; for `COC(=O)Nc1nc2ccc(C(=O)c3cccs3)cc2[nH]1` [NOCODAZOLE]: “Not Active”; for `C#CC1(O)CC[C@H]2[C@@H]3CCC4=CC(=O)CC[C@@H]4[C@H]3CC[C@@]21CC` (some centres not stated) [NORGESTREL]: “Not Active”.
Turning to `COC(=O)Nc1nc2ccc([S+]([O-])c3ccccc3)cc2[nH]1` (configuration not stated) [OXFENDAZOLE], the IC50 result is on record as “Not Active”.

System in another experiment: not listed separately
In words: DRUGMATRIX: Sodium/nucleoside co-transporter radioligand binding (ligand: nitrobenzylthioinosine). The experiment is classed as cell membranes, Cavia porcellus, Dunkin-Hartley, Cerebral cortex, Membrane. The conditions noted are these: Not Active = under 50% inhibition at 10 µM.
As to `NC(=O)C[S+]([O-])C(c1ccccc1)c1ccccc1` (configuration not stated) [MODAFINIL], the IC50 entry is “Not Active” and the Ki entry was “Not Active”.
In the case of `CCN(CC)CCOCCC1=CCC2CC1C2(C)C` (configuration not stated) [MYRTECAINE], the IC50 result is recorded as “Not Active” and the Ki entry is given as “Not Active”.
For the compound `O=C(O)c1cccnc1Nc1cccc(C(F)(F)F)c1` [NIFLUMIC ACID], the IC50 entry was “Not Active” and the Ki result is given as “Not Active”.
Consider `O=C(N/N=C/c1ccc([N+](=O)[O-])o1)c1cc([N+](=O)[O-])cc([N+](=O)[O-])c1O` [NIFURSOL], for which the IC50 entry was “Not Active” and the Ki result is given as “Not Active”.
As for `COC(=O)Nc1nc2ccc(C(=O)c3cccs3)cc2[nH]1` [NOCODAZOLE], the IC50 result is reported as “Not Active” and the Ki result was “Not Active”.
For the compound `C#CC1(O)CC[C@H]2[C@@H]3CCC4=CC(=O)CC[C@@H]4[C@H]3CC[C@@]21CC` (some centres not stated) [NORGESTREL], the IC50 entry is recorded as “Not Active” and the Ki result is on record as “Not Active”.
With `COC(=O)Nc1nc2ccc([S+]([O-])c3ccccc3)cc2[nH]1` (configuration not stated) [OXFENDAZOLE], the IC50 entry is reported as “Not Active” and the Ki result is “Not Active”.

In the next experiment the target is T1, Leukotriene C4 synthase (Cavia porcellus, UniProt A6XA80).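 Also: enzyme inhibition assay of leukotriene C4 synthase, using LTA4 as the substrate; in other assays of this panel Not Active means under 50% inhibition at 10 µM.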
T1 sequence (A6XA80 whole entry): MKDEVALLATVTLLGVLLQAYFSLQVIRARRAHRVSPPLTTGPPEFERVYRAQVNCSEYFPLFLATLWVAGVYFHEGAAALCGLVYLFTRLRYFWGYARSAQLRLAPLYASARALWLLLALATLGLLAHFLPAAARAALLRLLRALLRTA
The experiment is classed as tissue-based, Lung.
Settings: not given
Take `NC(=O)C[S+]([O-])C(c1ccccc1)c1ccccc1` (configuration not stated) [MODAFINIL]: the IC50 entry is “Not Active”.
On the same count and under the same terms, the same measure for `CCN(CC)CCOCCC1=CCC2CC1C2(C)C` (configuration not stated) [MYRTECAINE]: “Not Active”; for `O=C(O)c1cccnc1Nc1cccc(C(F)(F)F)c1` [NIFLUMIC ACID]: “Not Active”.
Same read-out and setting: the same measure for `O=C(N/N=C/c1ccc([N+](=O)[O-])o1)c1cc([N+](=O)[O-])cc([N+](=O)[O-])c1O` [NIFURSOL]: “Not Active”; for `COC(=O)Nc1nc2ccc(C(=O)c3cccs3)cc2[nH]1` [NOCODAZOLE]: “Not Active”; for `C#CC1(O)CC[C@H]2[C@@H]3CCC4=CC(=O)CC[C@@H]4[C@H]3CC[C@@]21CC` (some centres not stated) [NORGESTREL]: “Not Active”.
The same measure, in the same setting: in the case of `COC(=O)Nc1nc2ccc([S+]([O-])c3ccccc3)cc2[nH]1` (configuration not stated) [OXFENDAZOLE] it was “Not Active”.

The target of another experiment is C-C chemokine receptor type 5 (Homo sapiens, UniProt P51681). Format: cell membranes, Membrane. The conditions noted are these: hek293. Also: in other assays of this panel Not Active means under 50% inhibition at 10 µM.
Sequence of C-C chemokine receptor type 5 (P51681 whole entry): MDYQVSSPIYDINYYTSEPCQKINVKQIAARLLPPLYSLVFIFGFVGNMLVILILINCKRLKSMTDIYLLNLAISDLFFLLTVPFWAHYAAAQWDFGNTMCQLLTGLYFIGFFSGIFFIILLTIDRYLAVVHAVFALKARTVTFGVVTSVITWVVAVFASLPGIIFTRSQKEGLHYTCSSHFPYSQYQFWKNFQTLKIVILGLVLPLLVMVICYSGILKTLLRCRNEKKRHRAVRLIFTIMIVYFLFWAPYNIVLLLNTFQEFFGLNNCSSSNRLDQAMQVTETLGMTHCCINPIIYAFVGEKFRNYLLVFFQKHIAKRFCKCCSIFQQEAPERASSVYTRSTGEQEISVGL
As for `NC(=O)C[S+]([O-])C(c1ccccc1)c1ccccc1` (configuration not stated) [MODAFINIL], the IC50 entry was “Not Active”.
With `CCN(CC)CCOCCC1=CCC2CC1C2(C)C` (configuration not stated) [MYRTECAINE], the IC50 result is “Not Active”.
Same read-out and setting: the same measure for `O=C(O)c1cccnc1Nc1cccc(C(F)(F)F)c1` [NIFLUMIC ACID]: “Not Active”.
For the compound `O=C(N/N=C/c1ccc([N+](=O)[O-])o1)c1cc([N+](=O)[O-])cc([N+](=O)[O-])c1O` [NIFURSOL], the IC50 entry was “Not Active”.
In the case of `COC(=O)Nc1nc2ccc(C(=O)c3cccs3)cc2[nH]1` [NOCODAZOLE], the IC50 result is on record as “Not Active”.
With `C#CC1(O)CC[C@H]2[C@@H]3CCC4=CC(=O)CC[C@@H]4[C@H]3CC[C@@]21CC` (some centres not stated) [NORGESTREL], the IC50 result is recorded as “Not Active”.
As for `COC(=O)Nc1nc2ccc([S+]([O-])c3ccccc3)cc2[nH]1` (configuration not stated) [OXFENDAZOLE], the IC50 result is recorded as “Not Active”.

A further experiment concerns the target Nitric oxide synthase 1 (Rattus norvegicus, UniProt P29476). The experiment is classed as tissue-based, Cerebellum. Also: in other assays of this panel Not Active means under 50% inhibition at 10 µM.
Settings: not given
As to `NC(=O)C[S+]([O-])C(c1ccccc1)c1ccccc1` (configuration not stated) [MODAFINIL], the IC50 result is recorded as “Not Active”.
Still for that read-out and setting: in the case of `CCN(CC)CCOCCC1=CCC2CC1C2(C)C` (configuration not stated) [MYRTECAINE] it was “Not Active”; in that of `O=C(O)c1cccnc1Nc1cccc(C(F)(F)F)c1` [NIFLUMIC ACID], “Not Active”.
Consider `O=C(N/N=C/c1ccc([N+](=O)[O-])o1)c1cc([N+](=O)[O-])cc([N+](=O)[O-])c1O` [NIFURSOL], for which the IC50 entry is listed as “Not Active”.
For the compound `COC(=O)Nc1nc2ccc(C(=O)c3cccs3)cc2[nH]1` [NOCODAZOLE], the IC50 result is given as “Not Active”.
On the same count and under the same terms, the same measure for `C#CC1(O)CC[C@H]2[C@@H]3CCC4=CC(=O)CC[C@@H]4[C@H]3CC[C@@]21CC` (some centres not stated) [NORGESTREL]: “Not Active”; for `COC(=O)Nc1nc2ccc([S+]([O-])c3ccccc3)cc2[nH]1` (configuration not stated) [OXFENDAZOLE]: “Not Active”.
